Measurements from PubChem BioAssay AID256 (DTP/NCI, 2004).
Several values for one entry are separate records, joined by “and”; a condition that tells them apart may be missing. Identical values can stand only once. Inconclusive results and toxic doses are left out.

Test system: CD2F1 mice, L1210 leukemia ip, survival T/C
Assay: NCI In Vivo Anticancer Drug Screen. Data for tumor model L1210 Leukemia (intraperitoneal) in CD2F1 (CDF1) mice
Conditions: higher = longer survival
In short: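 Ratio T/C, where T is the treated-group value and C the vehicle-dosed control value, from mice implanted with a transplantable tumor.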

[1] = endpoint: mean survival time, dose: 100.0 mg/kg/injection, schedule: Q04DX003 (ip), vehicle: saline with Tween-80
[2] = endpoint: mean survival time, dose: 200.0 mg/kg/injection, schedule: Q04DX003 (ip), vehicle: saline with Tween-80
[3] = endpoint: mean survival time, dose: 12.5 mg/kg/injection, schedule: Q01DX009 (ip), vehicle: Klucel (hydroxypropylcellulose) (HPC)
[4] = endpoint: mean survival time, dose: 25.0 mg/kg/injection, schedule: Q01DX009 (ip), vehicle: Klucel (hydroxypropylcellulose) (HPC)
[5] = endpoint: mean survival time, dose: 50.0 mg/kg/injection, schedule: Q01DX009 (ip), vehicle: Klucel (hydroxypropylcellulose) (HPC)
[6] = endpoint: mean survival time, dose: 50.0 mg/kg/injection, schedule: Q01DX009 (ip), vehicle: saline with Tween-80
[7] = endpoint: mean survival time, dose: 100.0 mg/kg/injection, schedule: Q01DX009 (ip), vehicle: saline with Tween-80
[8] = endpoint: mean survival time, dose: 100.0 mg/kg/injection, schedule: Q04DX002 (ip), vehicle: saline with Tween-80
[9] = endpoint: mean survival time, dose: 200.0 mg/kg/injection, schedule: Q04DX002 (ip), vehicle: saline with Tween-80
[10] = endpoint: mean survival time, dose: 400.0 mg/kg/injection, schedule: Q04DX002 (ip), vehicle: saline with Tween-80
[11] = endpoint: mean survival time, dose: 400.0 mg/kg/injection, schedule: Q04DX003 (ip), vehicle: saline with Tween-80
[12] = endpoint: mean survival time, dose: 150.0 mg/kg/injection, schedule: Q04DX003 (ip), vehicle: saline with Tween-80

## COc1cc(Br)c(CCNC(=O)Cc2cc(OC)c(OC)cc2Br)cc1OC
[1]
  T/C: 91 % of control
[2]
  T/C: 86 % of control

## COc1cc2ccc3cnccc3c2cc1OC
[3]
  T/C: 100 % of control
[4]
  T/C: 92 % of control
[5]
  T/C: 94 % of control
endpoint: mean survival time, dose: 100.0 mg/kg/injection, schedule: Q01DX009 (ip), vehicle: Klucel (hydroxypropylcellulose) (HPC)
  T/C: 94 % of control
endpoint: mean survival time, dose: 200.0 mg/kg/injection, schedule: Q01DX009 (ip), vehicle: Klucel (hydroxypropylcellulose) (HPC)
  T/C: 100 % of control

## CSC(=S)N/N=C/c1ccccn1
[6]
  T/C: 97 % of control
[7]
  T/C: 98 % of control
[1]
  T/C: 103 % of control
[2]
  T/C: 94 % of control

## CCC[CH2][Sn]([CH2]CCC)([CH2]CCC)[CH2]CC(=O)OC
[1]
  T/C: 101 % of control
[2]
  T/C: 95 % of control

## O=[N+]([O-])c1ccc(/C=C/C2(CCl)OCCO2)cc1
endpoint: mean survival time, dose: 100.0 mg/kg/injection, schedule: Q01DX001 (ip), vehicle: Klucel (hydroxypropylcellulose) (HPC)
  T/C: 96 % of control
endpoint: mean survival time, dose: 200.0 mg/kg/injection, schedule: Q01DX001 (ip), vehicle: Klucel (hydroxypropylcellulose) (HPC)
  T/C: 92 % of control
endpoint: mean survival time, dose: 400.0 mg/kg/injection, schedule: Q01DX001 (ip), vehicle: Klucel (hydroxypropylcellulose) (HPC)
  T/C: 100 % of control

## Clc1cc(Cl)c2nc[nH]c2c1
[6]
  T/C: 91 % of control
[7]
  T/C: 95 % of control

## Clc1ccc(-c2ccncc2)cc1
[8]
  T/C: 101 % of control
[9]
  T/C: 108 % of control
[10]
  T/C: 103 % of control

## N=C(N)c1ccc(N=NNc2ccc(C(=N)N)cc2)cc1
endpoint: median survival time, dose: 12.5 mg/kg/injection, schedule: Q01DX009 (ip), vehicle: saline with Tween-80
  T/C: 117 % of control
endpoint: median survival time, dose: 25.0 mg/kg/injection, schedule: Q01DX009 (ip), vehicle: saline with Tween-80
  T/C: 102 % of control

## O=S(O)OS(=O)O
endpoint: mean survival time, dose: 37.5 mg/kg/injection, schedule: Q01DX009 (ip), vehicle: saline
  T/C: 89 % of control
endpoint: mean survival time, dose: 75.0 mg/kg/injection, schedule: Q01DX009 (ip), vehicle: saline
  T/C: 91 % of control
endpoint: mean survival time, dose: 100.0 mg/kg/injection, schedule: Q04DX003 (ip), vehicle: saline
  T/C: 101 % of control
endpoint: mean survival time, dose: 150.0 mg/kg/injection, schedule: Q01DX009 (ip), vehicle: saline
  T/C: 93 % of control
endpoint: mean survival time, dose: 200.0 mg/kg/injection, schedule: Q04DX003 (ip), vehicle: saline
  T/C: 101 % of control
endpoint: mean survival time, dose: 300.0 mg/kg/injection, schedule: Q01DX009 (ip), vehicle: saline
  T/C: 91 % of control
endpoint: mean survival time, dose: 400.0 mg/kg/injection, schedule: Q04DX003 (ip), vehicle: saline
  T/C: 96 % of control

## CCCCCCCCCCCCCCCCOc1ccc(S(=O)(=O)NC2CCCCC2)cc1N
[1]
  T/C: 104 % of control
[2]
  T/C: 94 % of control
[11]
  T/C: 96 % of control

## O=C(CC(=O)Nc1ccccc1)Nc1ccccc1
[1]
  T/C: 100 % of control
[2]
  T/C: 100 % of control
[11]
  T/C: 99 % of control

## CCN(C)N=Nc1ccc(NC(N)=O)cc1
endpoint: mean survival time, dose: 4.68 mg/kg/injection, schedule: Q01DX009 (ip), vehicle: Klucel (hydroxypropylcellulose) (HPC)
  T/C: 109 % of control and 112 % of control
endpoint: mean survival time, dose: 9.37 mg/kg/injection, schedule: Q01DX009 (ip), vehicle: Klucel (hydroxypropylcellulose) (HPC)
  T/C: 119 % of control and 108 % of control
endpoint: mean survival time, dose: 18.75 mg/kg/injection, schedule: Q01DX009 (ip), vehicle: Klucel (hydroxypropylcellulose) (HPC)
  T/C: 124 % of control
endpoint: mean survival time, dose: 37.5 mg/kg/injection, schedule: Q01DX009 (ip), vehicle: Klucel (hydroxypropylcellulose) (HPC)
  T/C: 152 % of control

## OC(O)(C(F)(F)F)C(F)(F)F
endpoint: mean survival time, dose: 50.0 mg/kg/injection, schedule: Q01DX005 (ip), vehicle: saline
  T/C: 103 % of control
endpoint: mean survival time, dose: 100.0 mg/kg/injection, schedule: Q01DX005 (ip), vehicle: saline
  T/C: 91 % of control
endpoint: mean survival time, dose: 100.0 mg/kg/injection, schedule: Q04DX002 (ip), vehicle: saline
  T/C: 103 % of control
endpoint: mean survival time, dose: 200.0 mg/kg/injection, schedule: Q04DX002 (ip), vehicle: saline
  T/C: 109 % of control

## O=[N+]([O-])c1c(Cl)cc(Cl)c(-c2c(Cl)cc(Cl)c([N+](=O)[O-])c2Cl)c1Cl
endpoint: mean survival time, dose: 12.5 mg/kg/injection, schedule: Q01DX009 (ip), vehicle: water
  T/C: 97 % of control
endpoint: mean survival time, dose: 25.0 mg/kg/injection, schedule: Q01DX009 (ip), vehicle: water
  T/C: 100 % of control
endpoint: mean survival time, dose: 50.0 mg/kg/injection, schedule: Q01DX009 (ip), vehicle: water
  T/C: 94 % of control
endpoint: mean survival time, dose: 100.0 mg/kg/injection, schedule: Q01DX009 (ip), vehicle: water
  T/C: 95 % of control
endpoint: mean survival time, dose: 200.0 mg/kg/injection, schedule: Q01DX009 (ip), vehicle: water
  T/C: 94 % of control

## O=S1CCCCO1 (centres undefined)
endpoint: mean survival time, dose: 75.0 mg/kg/injection, schedule: Q04DX003 (ip), vehicle: saline
  T/C: 95 % of control
endpoint: mean survival time, dose: 150.0 mg/kg/injection, schedule: Q04DX003 (ip), vehicle: saline
  T/C: 101 % of control

## COc1c(C)c2c(c3c1CCC(C)(CCC(=O)O)O3)C(=O)OC2 (centres undefined)
[8]
  T/C: 103 % of control
[9]
  T/C: 108 % of control
[10]
  T/C: 100 % of control

## Cn1ccoc1=NC1CCCCC1
[6]
  T/C: 94 % of control
[7]
  T/C: 94 % of control
endpoint: mean survival time, dose: 200.0 mg/kg/injection, schedule: Q01DX009 (ip), vehicle: saline with Tween-80
  T/C: 91 % of control

## CCCCOC(=S)S.[Pt]
endpoint: mean survival time, dose: 18.75 mg/kg/injection, schedule: Q04DX003 (ip), vehicle: saline with Tween-80
  T/C: 101 % of control
endpoint: mean survival time, dose: 37.5 mg/kg/injection, schedule: Q04DX003 (ip), vehicle: saline with Tween-80
  T/C: 93 % of control
endpoint: mean survival time, dose: 75.0 mg/kg/injection, schedule: Q04DX003 (ip), vehicle: saline with Tween-80
  T/C: 101 % of control
[12]
  T/C: 101 % of control
endpoint: mean survival time, dose: 300.0 mg/kg/injection, schedule: Q04DX003 (ip), vehicle: saline with Tween-80
  T/C: 97 % of control

## NC(C(=O)O)=C(c1ccccc1)c1ccccc1
[8]
  T/C: 98 % of control
[9]
  T/C: 102 % of control
[10]
  T/C: 102 % of control

## c1ccc2c(c1)oc1c3ccccc3c3ccccc3c21
endpoint: median survival time, dose: 25.0 mg/kg/injection, schedule: Q04DX002 (ip), vehicle: saline with Tween-80
  T/C: 110 % of control
endpoint: median survival time, dose: 50.0 mg/kg/injection, schedule: Q04DX002 (ip), vehicle: saline with Tween-80
  T/C: 90 % of control
endpoint: median survival time, dose: 100.0 mg/kg/injection, schedule: Q04DX002 (ip), vehicle: saline with Tween-80
  T/C: 110 % of control
endpoint: median survival time, dose: 200.0 mg/kg/injection, schedule: Q04DX002 (ip), vehicle: saline with Tween-80
  T/C: 110 % of control

## COc1ccc2ccc[n+](C)c2c1
endpoint: mean survival time, dose: 6.25 mg/kg/injection, schedule: Q01DX009 (ip), vehicle: saline
  T/C: 94 % of control
endpoint: mean survival time, dose: 6.25 mg/kg/injection, schedule: Q04DX003 (ip), vehicle: saline with Tween-80
  T/C: 98 % of control
endpoint: mean survival time, dose: 12.5 mg/kg/injection, schedule: Q01DX009 (ip), vehicle: saline
  T/C: 104 % of control
endpoint: mean survival time, dose: 12.5 mg/kg/injection, schedule: Q04DX003 (ip), vehicle: saline with Tween-80
  T/C: 101 % of control
endpoint: mean survival time, dose: 25.0 mg/kg/injection, schedule: Q01DX009 (ip), vehicle: saline
  T/C: 107 % of control
endpoint: mean survival time, dose: 25.0 mg/kg/injection, schedule: Q04DX003 (ip), vehicle: saline with Tween-80
  T/C: 101 % of control

## CCCCCOS(=O)(=O)O
endpoint: mean survival time, dose: 100.0 mg/kg/injection, schedule: Q01DX001 (ip), vehicle: saline
  T/C: 108 % of control
endpoint: mean survival time, dose: 200.0 mg/kg/injection, schedule: Q01DX001 (ip), vehicle: saline
  T/C: 120 % of control
endpoint: mean survival time, dose: 400.0 mg/kg/injection, schedule: Q01DX001 (ip), vehicle: saline
  T/C: 102 % of control

## CC(=O)Oc1ccc2c(c1)C(=O)CCC=C2
endpoint: mean survival time, dose: 12.5 mg/kg/injection, schedule: Q01DX009 (ip), vehicle: other
  T/C: 103 % of control
endpoint: mean survival time, dose: 25.0 mg/kg/injection, schedule: Q01DX009 (ip), vehicle: other
  T/C: 106 % of control
endpoint: mean survival time, dose: 50.0 mg/kg/injection, schedule: Q01DX009 (ip), vehicle: other
  T/C: 108 % of control

## CCOC(=O)NCC1CCC(CO)CC1 (centres undefined)
[8]
  T/C: 95 % of control
[9]
  T/C: 117 % of control
[10]
  T/C: 98 % of control

## O=[N+]([O-])c1ccc2c(c1)S(=O)c1cc([N+](=O)[O-])c(Br)cc1-2 (centres undefined) (tested in a mixture with another compound)
endpoint: mean survival time, dose: 50.0 mg/kg/injection, schedule: Q04DX002 (ip), vehicle: saline with Tween-80
  T/C: 108 % of control
[8]
  T/C: 108 % of control
[9]
  T/C: 102 % of control

## COc1ccc2c(Nc3ccc(NS(C)(=O)=O)cc3)c3ccccc3nc2c1
endpoint: mean survival time, dose: 25.0 mg/kg/injection, schedule: Q01DX009 (ip), vehicle: saline with Tween-80
  T/C: 100 % of control
[6]
  T/C: 86 % of control
[1]
  T/C: 120 % of control
[12]
  T/C: 94 % of control

## S=c1cc[nH]c(=S)[nH]1
[3]
  T/C: 102 % of control
[4]
  T/C: 98 % of control
[5]
  T/C: 101 % of control
